The source of these data is ChEMBL document CHEMBL2073864, “Transport of glyburide by placental ABC transporters: implications in fetal drug exposure” (Placenta, 2006).

Common to all, as to assay type: functional, cell-based
In series [1] the target is Multidrug resistance associated protein (Homo sapiens) (UniProt Q96QA9). Description: TP_TRANSPORTER: inhibition of 5-carboxyfluorescein accumulation by glyburide at a concentration of 200uM in MRP3-expressing MDCK cells. Details: scale not given: the % may be the effect or the level left.
Chain of Multidrug resistance associated protein (Homo sapiens) (Q96QA9 as listed by the source): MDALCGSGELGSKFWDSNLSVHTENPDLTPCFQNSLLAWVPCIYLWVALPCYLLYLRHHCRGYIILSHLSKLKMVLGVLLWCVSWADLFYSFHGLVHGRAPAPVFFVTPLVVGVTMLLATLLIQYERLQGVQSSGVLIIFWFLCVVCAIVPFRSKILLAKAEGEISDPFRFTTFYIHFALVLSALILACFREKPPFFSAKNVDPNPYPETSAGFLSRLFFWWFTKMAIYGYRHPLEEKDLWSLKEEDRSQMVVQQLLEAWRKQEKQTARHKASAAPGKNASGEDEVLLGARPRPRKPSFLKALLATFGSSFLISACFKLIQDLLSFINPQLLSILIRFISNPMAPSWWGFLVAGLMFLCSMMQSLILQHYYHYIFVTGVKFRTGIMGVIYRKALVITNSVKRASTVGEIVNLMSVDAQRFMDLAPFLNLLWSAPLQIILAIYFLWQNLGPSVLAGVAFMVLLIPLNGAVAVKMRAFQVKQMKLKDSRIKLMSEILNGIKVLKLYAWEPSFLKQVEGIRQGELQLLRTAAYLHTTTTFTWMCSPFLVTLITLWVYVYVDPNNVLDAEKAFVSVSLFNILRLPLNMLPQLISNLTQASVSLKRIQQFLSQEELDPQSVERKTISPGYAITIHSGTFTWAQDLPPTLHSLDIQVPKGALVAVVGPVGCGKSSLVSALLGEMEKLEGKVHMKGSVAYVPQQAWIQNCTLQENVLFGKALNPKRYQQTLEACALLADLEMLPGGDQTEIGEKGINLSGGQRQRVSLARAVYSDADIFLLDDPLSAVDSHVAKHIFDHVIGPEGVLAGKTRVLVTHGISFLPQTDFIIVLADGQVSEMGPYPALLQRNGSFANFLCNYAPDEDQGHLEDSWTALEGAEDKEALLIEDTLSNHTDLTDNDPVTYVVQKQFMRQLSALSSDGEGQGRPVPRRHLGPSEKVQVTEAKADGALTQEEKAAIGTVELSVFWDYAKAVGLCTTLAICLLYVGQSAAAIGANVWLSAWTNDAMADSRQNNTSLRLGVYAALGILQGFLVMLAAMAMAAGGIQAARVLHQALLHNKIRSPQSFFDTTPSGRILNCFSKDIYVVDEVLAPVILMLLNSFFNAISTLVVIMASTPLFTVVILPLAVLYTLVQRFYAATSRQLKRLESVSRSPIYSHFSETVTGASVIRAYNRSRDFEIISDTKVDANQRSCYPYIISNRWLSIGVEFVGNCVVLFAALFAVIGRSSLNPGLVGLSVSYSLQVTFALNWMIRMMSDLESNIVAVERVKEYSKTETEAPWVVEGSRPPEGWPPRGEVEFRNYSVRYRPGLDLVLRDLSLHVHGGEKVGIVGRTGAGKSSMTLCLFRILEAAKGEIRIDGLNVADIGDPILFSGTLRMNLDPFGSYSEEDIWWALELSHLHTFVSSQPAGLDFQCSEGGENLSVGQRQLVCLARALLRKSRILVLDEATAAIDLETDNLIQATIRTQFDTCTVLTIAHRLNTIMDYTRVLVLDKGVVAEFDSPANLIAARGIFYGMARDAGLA
The target of series [2] is T1, Broad substrate specificity ATP-binding cassette transporter ABCG2 (Homo sapiens, UniProt Q9UNQ0).
T1 sequence (Q9UNQ0 whole entry): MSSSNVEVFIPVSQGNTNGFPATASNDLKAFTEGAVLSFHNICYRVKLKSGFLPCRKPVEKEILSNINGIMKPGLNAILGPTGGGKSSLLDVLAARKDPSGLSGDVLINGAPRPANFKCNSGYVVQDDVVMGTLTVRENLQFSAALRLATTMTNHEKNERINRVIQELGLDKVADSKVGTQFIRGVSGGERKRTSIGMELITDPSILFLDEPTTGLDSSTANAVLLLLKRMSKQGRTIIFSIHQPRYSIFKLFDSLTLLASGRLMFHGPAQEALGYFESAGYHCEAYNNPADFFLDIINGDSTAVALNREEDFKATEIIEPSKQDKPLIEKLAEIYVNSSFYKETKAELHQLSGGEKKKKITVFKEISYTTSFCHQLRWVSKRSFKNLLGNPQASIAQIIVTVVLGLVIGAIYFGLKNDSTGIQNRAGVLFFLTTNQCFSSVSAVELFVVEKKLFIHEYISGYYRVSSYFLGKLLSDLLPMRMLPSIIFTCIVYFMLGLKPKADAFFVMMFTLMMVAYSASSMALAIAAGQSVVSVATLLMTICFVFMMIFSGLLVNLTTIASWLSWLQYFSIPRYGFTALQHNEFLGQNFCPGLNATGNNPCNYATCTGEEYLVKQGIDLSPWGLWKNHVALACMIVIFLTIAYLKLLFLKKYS
Kind of series: TP_TRANSPORTER: inhibition of mitoxantrone efflux in BCRP-expressing MCF7-MX cells.

Series [3] concerns the target T2, ATP-binding cassette sub-family C member 2 (Homo sapiens, UniProt Q92887). Kind of series: TP_TRANSPORTER: inhibition of 5-carboxyfluorescein accumulation by glyburide at a concentration of 200uM in MRP2-expressing MDCK cells. Particulars: dog. Details: scale not given: the % may be the effect or the level left.
The target in series [4] is Multidrug resistance associated protein (Homo sapiens) (UniProt Q96QA9). Kind of series: TP_TRANSPORTER: inhibition of 5-carboxyfluorescein accumulation by glyburide at a concentration of 10uM in MRP3-expressing MDCK cells.
In series [5] the target is T3, Multidrug resistance-associated protein 1 (Mus musculus, UniProt O35379). Description: TP_TRANSPORTER: inhibition of 5-carboxyfluorescein accumulation in the presence of glyburide at a concentration of 10uM in MRP1-expressing HeLa cells. The conditions noted are these: human.
T3 sequence (O35379 whole entry): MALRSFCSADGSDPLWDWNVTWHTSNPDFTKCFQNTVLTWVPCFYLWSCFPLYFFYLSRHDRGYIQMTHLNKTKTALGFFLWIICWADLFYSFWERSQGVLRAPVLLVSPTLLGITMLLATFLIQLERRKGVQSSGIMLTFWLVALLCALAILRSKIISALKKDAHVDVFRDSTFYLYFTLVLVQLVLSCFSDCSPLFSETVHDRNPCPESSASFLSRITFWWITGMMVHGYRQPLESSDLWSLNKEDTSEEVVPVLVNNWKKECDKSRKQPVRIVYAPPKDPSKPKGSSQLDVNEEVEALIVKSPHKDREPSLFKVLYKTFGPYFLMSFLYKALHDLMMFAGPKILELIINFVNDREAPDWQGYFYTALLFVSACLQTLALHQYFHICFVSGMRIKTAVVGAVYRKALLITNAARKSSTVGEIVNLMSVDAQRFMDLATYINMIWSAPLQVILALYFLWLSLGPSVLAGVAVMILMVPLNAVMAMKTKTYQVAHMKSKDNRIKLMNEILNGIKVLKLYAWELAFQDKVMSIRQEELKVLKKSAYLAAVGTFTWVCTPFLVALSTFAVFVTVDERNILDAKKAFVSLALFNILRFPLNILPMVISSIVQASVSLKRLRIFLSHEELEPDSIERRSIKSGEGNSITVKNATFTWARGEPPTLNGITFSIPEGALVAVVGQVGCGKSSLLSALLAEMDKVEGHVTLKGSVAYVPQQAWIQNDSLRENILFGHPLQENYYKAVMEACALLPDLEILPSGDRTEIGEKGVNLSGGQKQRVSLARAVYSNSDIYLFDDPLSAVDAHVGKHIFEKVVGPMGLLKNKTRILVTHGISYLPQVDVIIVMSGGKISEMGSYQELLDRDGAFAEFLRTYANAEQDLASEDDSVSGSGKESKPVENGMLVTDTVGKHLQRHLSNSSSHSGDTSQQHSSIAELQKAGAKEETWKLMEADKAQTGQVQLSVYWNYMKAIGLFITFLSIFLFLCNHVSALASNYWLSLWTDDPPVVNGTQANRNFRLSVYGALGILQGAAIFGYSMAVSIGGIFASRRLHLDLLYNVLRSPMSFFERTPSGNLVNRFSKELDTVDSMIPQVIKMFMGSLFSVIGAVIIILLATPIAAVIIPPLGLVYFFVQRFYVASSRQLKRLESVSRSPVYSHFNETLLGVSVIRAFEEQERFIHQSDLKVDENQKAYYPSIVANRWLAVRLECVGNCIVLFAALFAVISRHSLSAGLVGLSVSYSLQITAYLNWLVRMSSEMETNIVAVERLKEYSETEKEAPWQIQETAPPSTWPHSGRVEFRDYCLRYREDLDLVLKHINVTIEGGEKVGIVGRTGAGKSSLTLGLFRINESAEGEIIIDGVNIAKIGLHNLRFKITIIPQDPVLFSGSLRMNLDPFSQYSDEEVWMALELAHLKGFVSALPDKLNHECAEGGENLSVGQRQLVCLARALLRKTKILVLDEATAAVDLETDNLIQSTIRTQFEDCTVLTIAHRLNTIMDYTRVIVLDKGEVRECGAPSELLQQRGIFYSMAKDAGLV
Series [6] addresses T2, ATP-binding cassette sub-family C member 2. Kind of series: TP_TRANSPORTER: inhibition of 5-carboxyfluorescein accumulation in MRP2-expressing MDCK cells. The conditions noted are these: dog.
Series [7] deals with T3, Multidrug resistance-associated protein 1. Kind of series: TP_TRANSPORTER: inhibition of 5-carboxyfluorescein accumulation in the presence of indomethacin at a concentration of 200uM in MRP1-expressing HeLa cells. Details: scale not given: the % may be the effect or the level left. Particulars: human.
Series [8] addresses Multidrug resistance associated protein (Homo sapiens) (UniProt Q96QA9). Description: TP_TRANSPORTER: inhibition of glyburide accumulation by indomethacin at a concentration of 200uM in MRP3-expressing MDCK cells.
For series [9], the target named is T2, ATP-binding cassette sub-family C member 2. Description: TP_TRANSPORTER: inhibition of glyburide accumulation in MRP2-expressing MDCK cells. The conditions noted are these: dog.
In series [10] the target is Multidrug resistance associated protein (Homo sapiens) (UniProt Q96QA9). Description: TP_TRANSPORTER: inhibition of 5-carboxyfluorescein accumulation by indomethacin at a concentration of 200uM in MRP3-expressing MDCK cells. Details: scale not given: the % may be the effect or the level left.
Series [11] has as its target T3, Multidrug resistance-associated protein 1. Kind of series: TP_TRANSPORTER: inhibition of glyburide accumulation in the presence of indomethacin at a concentration of 200uM in MRP1-expressing HeLa cells. Particulars: human.

SMILES strings stand for the structures.

T2 sequence (Q92887 whole entry): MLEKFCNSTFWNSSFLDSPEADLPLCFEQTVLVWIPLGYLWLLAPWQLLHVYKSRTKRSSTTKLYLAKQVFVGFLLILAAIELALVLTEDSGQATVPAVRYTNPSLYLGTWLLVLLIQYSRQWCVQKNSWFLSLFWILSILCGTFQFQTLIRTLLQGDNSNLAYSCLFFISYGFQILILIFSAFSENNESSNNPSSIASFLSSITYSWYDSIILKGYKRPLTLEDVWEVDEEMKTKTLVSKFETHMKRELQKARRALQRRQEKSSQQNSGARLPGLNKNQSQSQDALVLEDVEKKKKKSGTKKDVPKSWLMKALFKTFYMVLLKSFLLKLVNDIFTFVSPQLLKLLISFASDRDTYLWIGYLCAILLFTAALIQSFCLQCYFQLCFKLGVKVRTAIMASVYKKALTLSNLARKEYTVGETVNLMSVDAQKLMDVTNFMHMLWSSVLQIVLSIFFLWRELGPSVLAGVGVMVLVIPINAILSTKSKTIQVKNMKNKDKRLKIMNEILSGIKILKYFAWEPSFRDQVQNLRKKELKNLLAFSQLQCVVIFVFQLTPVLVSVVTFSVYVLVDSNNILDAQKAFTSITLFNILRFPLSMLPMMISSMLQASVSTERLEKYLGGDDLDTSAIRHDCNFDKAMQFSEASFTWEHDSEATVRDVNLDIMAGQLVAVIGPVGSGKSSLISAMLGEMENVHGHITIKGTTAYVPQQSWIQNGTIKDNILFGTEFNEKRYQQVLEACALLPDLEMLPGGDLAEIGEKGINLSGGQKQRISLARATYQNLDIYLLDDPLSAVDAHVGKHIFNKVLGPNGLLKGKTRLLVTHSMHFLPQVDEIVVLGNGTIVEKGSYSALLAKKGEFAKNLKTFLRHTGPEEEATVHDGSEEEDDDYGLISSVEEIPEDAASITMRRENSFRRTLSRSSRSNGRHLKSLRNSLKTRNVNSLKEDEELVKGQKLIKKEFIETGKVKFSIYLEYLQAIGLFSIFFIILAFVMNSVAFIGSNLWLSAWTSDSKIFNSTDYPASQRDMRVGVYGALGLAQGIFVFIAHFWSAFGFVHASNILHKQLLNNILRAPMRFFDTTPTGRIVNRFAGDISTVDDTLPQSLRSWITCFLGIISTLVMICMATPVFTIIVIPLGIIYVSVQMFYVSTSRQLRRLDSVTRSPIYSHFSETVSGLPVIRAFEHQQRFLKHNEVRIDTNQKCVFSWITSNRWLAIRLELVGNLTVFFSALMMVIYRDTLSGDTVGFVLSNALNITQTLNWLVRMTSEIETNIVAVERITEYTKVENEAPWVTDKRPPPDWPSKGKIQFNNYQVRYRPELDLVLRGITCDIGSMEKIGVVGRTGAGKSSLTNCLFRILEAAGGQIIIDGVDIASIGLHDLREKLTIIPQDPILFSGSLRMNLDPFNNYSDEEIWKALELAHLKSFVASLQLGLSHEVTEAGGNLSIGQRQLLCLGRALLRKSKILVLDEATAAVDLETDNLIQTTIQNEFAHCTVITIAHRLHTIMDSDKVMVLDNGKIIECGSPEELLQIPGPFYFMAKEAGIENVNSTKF

Take `COc1ccc(Cl)cc1C(=O)NCCc1ccc(S(=O)(=O)NC(=O)NC2CCCCC2)cc1` [GLYBURIDE]: the Activity in [1] was 1350%; in series [3], 230%; in [4], “is not a inhibitor [-]”; in series [5], “is not an inhibitor [-]”; in series [6] it was “is not an inhibitor [-]”. For the same molecule, the IC50 (as a rule, the concentration needed to halve the response being measured) in series [2] came out at 150 µM.

In the case of `COc1ccc2c(c1)c(CC(=O)O)c(C)n2C(=O)c1ccc(Cl)cc1` [INDOMETHACIN], the Activity in [7] is 170%; in series [8] it was 1.8 fold; in series [9], “is not an inhibitor [-]”; in series [10], 350%; in series [11] it was “inhibitor [+]”.
